Literature values, collected in patent publication US20180318246A1 (SUN PHARMACEUTICAL INDUSTRIES LIMITED, priority 2015, published 2018).
Where a name gives a salt, the structure may show the parent alone.

Permeability coefficient compared with monomethyl fumarate: significantly higher
Structure (SMILES): COC(=O)/C=C/C(=O)OC [dimethyl fumarate]
